{"source": "patent US20040097544A1", "about": "“Use of an inhibitor of the Na+/H+ exchanger for the production of a medicament for the treatment or prophylaxis of disturbances of the central nervous system” (Hoechst Marion Roussel Deutschland GMBH, priority 1997, published 2004)", "system": "CA3 neurons of the hippocampus", "test": "Decrease in neuronal excitability on hippocampus slice preparations of CA3 neurons, intracellular leads", "assay_type": "cell-based, guinea-pigs", "description": "In the model of CA3 neurons in hippocampus tissue slices, NHE inhibitors with their antiepileptic and antipsychotic therapy potential inhibit epileptiform discharges. Hyperexcitability of neurons in the form of so-called epileptiform discharges was triggered by the action of bicuculline, caffeine or low magnesium concentrations. […] The decrease in neuronal excitability was tested on slice preparations of CA3 neurons of the hippocampus (guinea-pigs). The excitation-inhibiting action of cariporide (HOE 642) was investigated in 8 experiments. The neuronal excitability was assessed with intracellular leads with the aid of the spontaneous bioelectric activity and the pharmacologically produced epileptiform activity which had been induced by bicuculline, caffeine or absence of magnesium.", "data": [{"smiles": "CC(C)c1ccc(C(=O)NC(=N)N)cc1S(C)(=O)=O", "note": "[cariporide]", "values": [{"measurement": "inhibition of the epileptiform discharges", "setting": "CA3 neurons in hippocampus tissue slices, discharges triggered by bicuculline, caffeine or low magnesium concentrations", "value": "marked inhibition"}, {"measurement": "duration of the reduction of spontaneous action potential and paroxysmal depolarization frequency", "setting": "after wash-in of 0.1-0.5 mM cariporide", "value": "more than 45 minutes"}, {"measurement": "reduction of the frequency of the spontaneous action potentials", "setting": "after wash-in of 0.1-0.5 mM cariporide, reversible, 8 experiments", "value": "30-80%"}, {"measurement": "reduction of the frequency of periodic paroxysmal depolarization", "setting": "after wash-in of 0.1-0.5 mM cariporide, reversible, epileptiform activity induced by bicuculline, caffeine or absence of magnesium, 8 experiments", "value": "30-80%"}]}]}
